Measurements as given in patent US20090137579A1, “Mesylate salt of an IKK inhibitor” (Millennium Pharmaceuticals, Inc., priority 2007, published 2009).
≈ marks a conversion by molar mass, not a printed value. Structures can show the parent of a compound that is named as a salt. Where two headings read alike, the source gives them in different places.

Key:
[1] = Water solubility (equilibrium solubility at ambient temperature); assay type: physicochemical
Description: The water solubility of Mesylate Salt Form 1 was measured at ambient temperature. Table 6 is a summary of the equilibrium solubility.

[2] = Gravimetric vapor sorption (GVS), hygroscopicity; assay type: physicochemical
Description: Gravimetric vapor sorption (GVS) data are collected using a SGA-100 Water Vapor Sorption Analyzer from VTI Corporation. Sample sizes are typically 10 mg. A moisture adsorption/desorption isotherm is recorded by subjecting samples to a series of relative humidity (RH) steps.

solubility ([1]; pH 2.52, thermodynamic from solid, water, ambient temperature, equilibrium solubility, read-out: Solubility) | pH ([1]; pH printed beside the equilibrium water solubility) | solubility ([1]; thermodynamic from solid, in water, crystalline Form 1, read-out: solubility) | uptake (vapor sorption) ([2]; at 70% relative humidity (RH)) | uptake (vapor sorption) ([2]; at 90% RH) | solubility ([1]; in water, crystalline free base, read-out: solubility) | solubility ([1]; water, free base, read-out: intrinsic solubility) | Structure (SMILES)
> 360000 µg/mL | 2.52 | > 360000 µg/mL | 1.5% | 3.4% |  |  | C[C@@H]1CN(C(=O)CN2CC(C)(C)OC[C@H]2C(=O)Nc2cc(Cl)cc3c2[nH]c2cnccc23)C[C@H](C)O1 [Mesylate Form 1, (S)—N-(6-chloro-9H-pyrido[3,4-b]indol-8-yl)-4-(2-((2S,6R)-2,6-dimethylmorpholino)-2-oxoethyl)-6,6-dimethylmorpholine-3-carboxamide Mesylate Form 1]
 |  |  |  |  | ~10 µg/mL (≈ 19.5 µM) | ~10 µg/mL (≈ 19.5 µM) | C[C@@H]1CN(C(=O)CN2CC(C)(C)OC[C@H]2C(=O)Nc2cc(Cl)cc3c2[nH]c2cnccc23)C[C@H](C)O1 [free base, (S)—N-(6-chloro-9H-pyrido[3,4-b]indol-8-yl)-4-(2-((2S,6R)-2,6-dimethylmorpholino)-2-oxoethyl)-6,6-dimethylmorpholine-3-carboxamide]
